From the NIST ThermoML archive (doi:10.1016/j.fluid.2018.07.028) come the findings set out here.

± gives the expanded uncertainty stated by the source.

The series can be described thus: activity coefficient (dimensionless); of the first substance listed, at infinite dilution; xn = mol fraction of the nth substance listed. Particulars: 101.33 kPa, Liquid, Chromatography, x1 = 0.

For the compound `CC(C)CC(C)(C)C` [2,2,4-trimethylpentane] + CCCC[P+](CCCC)(CCCC)CCCC.O=S(=O)([N-]S(=O)(=O)C(F)(F)F)C(F)(F)F, the activity coefficient by setting is: (358.15 K) 5.43 ± 0.37; (368.15 K) 5.42 ± 0.37; (378.15 K) 5.41 ± 0.37; (388.15 K) 5.4 ± 0.37; (398.15 K) 5.39 ± 0.37; (408.15 K) 5.39 ± 0.37.

For `CCC(=O)OC` [methyl propanoate] + CCCC[P+](CCCC)(CCCC)CCCC.O=S(=O)([N-]S(=O)(=O)C(F)(F)F)C(F)(F)F, the activity coefficient was found to be 0.82 ± 0.053 (358.15 K); 0.857 ± 0.055 (368.15 K); 0.894 ± 0.057 (378.15 K); 0.931 ± 0.059 (388.15 K); 0.967 ± 0.061 (398.15 K); 1 ± 0.06 (408.15 K).

Take `CC1CCCCC1` [methylcyclohexane] + CCCC[P+](CCCC)(CCCC)CCCC.O=S(=O)([N-]S(=O)(=O)C(F)(F)F)C(F)(F)F: the activity coefficient is 3.5 ± 0.24 (358.15 K); 3.49 ± 0.24 (368.15 K); 3.48 ± 0.24 (378.15 K); 3.48 ± 0.24 (388.15 K); 3.47 ± 0.24 (398.15 K); 3.46 ± 0.24 (408.15 K).

In the case of `CCc1ccccc1` [ethylbenzene] + CCCC[P+](CCCC)(CCCC)CCCC.O=S(=O)([N-]S(=O)(=O)C(F)(F)F)C(F)(F)F, the activity coefficient (358.15 K) stood at 1.49 ± 0.1; the activity coefficient (368.15 K) was 1.54 ± 0.1; the activity coefficient (378.15 K) is 1.58 ± 0.1; the activity coefficient (388.15 K) was determined as 1.63 ± 0.11; the activity coefficient (398.15 K) was 1.67 ± 0.11; the activity coefficient (408.15 K) was determined as 1.71 ± 0.11.

For the compound `CC(C)CO` [2-methyl-1-propanol] + CCCC[P+](CCCC)(CCCC)CCCC.O=S(=O)([N-]S(=O)(=O)C(F)(F)F)C(F)(F)F, the activity coefficient reads like this: (358.15 K) 1.57 ± 0.1; (368.15 K) 1.52 ± 0.1; (378.15 K) 1.46 ± 0.1; (388.15 K) 1.41 ± 0.09; (398.15 K) 1.37 ± 0.09; (408.15 K) 1.33 ± 0.09.

Regarding `CCC(C)CC` [3-methylpentane] + CCCC[P+](CCCC)(CCCC)CCCC.O=S(=O)([N-]S(=O)(=O)C(F)(F)F)C(F)(F)F, the activity coefficient runs as follows: (358.15 K) 4.02 ± 0.27; (368.15 K) 4.04 ± 0.28; (378.15 K) 4.06 ± 0.28; (388.15 K) 4.09 ± 0.28; (398.15 K) 4.11 ± 0.28; (408.15 K) 4.13 ± 0.28.

As to `CCC[N+](=O)[O-]` [1-nitropropane] + CCCC[P+](CCCC)(CCCC)CCCC.O=S(=O)([N-]S(=O)(=O)C(F)(F)F)C(F)(F)F, the activity coefficient by setting is: (358.15 K) 0.693 ± 0.047; (368.15 K) 0.708 ± 0.047; (378.15 K) 0.724 ± 0.048; (388.15 K) 0.739 ± 0.049; (398.15 K) 0.754 ± 0.05; (408.15 K) 0.768 ± 0.05.

With `COC(C)=O` [methyl ethanoate] + CCCC[P+](CCCC)(CCCC)CCCC.O=S(=O)([N-]S(=O)(=O)C(F)(F)F)C(F)(F)F, the activity coefficient (358.15 K) is 0.753 ± 0.05; the activity coefficient (368.15 K) is 0.785 ± 0.051; the activity coefficient (378.15 K) was 0.816 ± 0.053; the activity coefficient (388.15 K) worked out at 0.847 ± 0.054; the activity coefficient (398.15 K) turned out to be 0.878 ± 0.056; the activity coefficient (408.15 K) was 0.909 ± 0.058.

Turning to `CO` [methanol] + CCCC[P+](CCCC)(CCCC)CCCC.O=S(=O)([N-]S(=O)(=O)C(F)(F)F)C(F)(F)F, the activity coefficient (358.15 K) was 1.28 ± 0.08; the activity coefficient (368.15 K) was 1.23 ± 0.08; the activity coefficient (378.15 K) is 1.18 ± 0.08; the activity coefficient (388.15 K) was 1.14 ± 0.07; the activity coefficient (398.15 K) was determined as 1.1 ± 0.07; the activity coefficient (408.15 K) is 1.06 ± 0.07.

`CCC(=O)CC` [pentan-3-one] + CCCC[P+](CCCC)(CCCC)CCCC.O=S(=O)([N-]S(=O)(=O)C(F)(F)F)C(F)(F)F: the activity coefficient by setting is: (358.15 K) 0.629 ± 0.043; (368.15 K) 0.66 ± 0.045; (378.15 K) 0.69 ± 0.05; (388.15 K) 0.721 ± 0.048; (398.15 K) 0.75 ± 0.049; (408.15 K) 0.781 ± 0.051.

`CCCCCCC` [heptane] + CCCC[P+](CCCC)(CCCC)CCCC.O=S(=O)([N-]S(=O)(=O)C(F)(F)F)C(F)(F)F: the activity coefficient reads like this: (358.15 K) 5.4 ± 0.37; (368.15 K) 5.38 ± 0.37; (378.15 K) 5.37 ± 0.37; (388.15 K) 5.35 ± 0.36; (398.15 K) 5.34 ± 0.36; (408.15 K) 5.33 ± 0.36.

For the compound `CCCCCCCCC` [nonane] + CCCC[P+](CCCC)(CCCC)CCCC.O=S(=O)([N-]S(=O)(=O)C(F)(F)F)C(F)(F)F, the activity coefficient is 8.31 ± 0.57 (358.15 K); 8.15 ± 0.56 (368.15 K); 8.01 ± 0.55 (378.15 K); 7.87 ± 0.54 (388.15 K); 7.74 ± 0.53 (398.15 K); 7.62 ± 0.52 (408.15 K).

For `Cc1ccc(C)cc1` [1,4-dimethylbenzene] + CCCC[P+](CCCC)(CCCC)CCCC.O=S(=O)([N-]S(=O)(=O)C(F)(F)F)C(F)(F)F, the activity coefficient is, setting by setting: (358.15 K) 1.55 ± 0.1; (368.15 K) 1.6 ± 0.11; (378.15 K) 1.64 ± 0.11; (388.15 K) 1.69 ± 0.11; (398.15 K) 1.74 ± 0.12; (408.15 K) 1.79 ± 0.12.

As for `C#CCCC` [1-pentyne] + CCCC[P+](CCCC)(CCCC)CCCC.O=S(=O)([N-]S(=O)(=O)C(F)(F)F)C(F)(F)F, the activity coefficient (358.15 K) came out at 1.52 ± 0.1; the activity coefficient (368.15 K) came out at 1.58 ± 0.1; the activity coefficient (378.15 K) was 1.64 ± 0.11; the activity coefficient (388.15 K) was found to be 1.7 ± 0.11; the activity coefficient (398.15 K) was determined as 1.76 ± 0.12; the activity coefficient (408.15 K) is 1.82 ± 0.12.

Turning to `C=CCCCCC` [1-heptene] + CCCC[P+](CCCC)(CCCC)CCCC.O=S(=O)([N-]S(=O)(=O)C(F)(F)F)C(F)(F)F, the activity coefficient was 3.96 ± 0.27 (358.15 K); 4 ± 0.27 (368.15 K); 4.05 ± 0.28 (378.15 K); 4.09 ± 0.28 (388.15 K); 4.13 ± 0.28 (398.15 K); 4.17 ± 0.28 (408.15 K).

On to `C1CCCCC1` [cyclohexane] + CCCC[P+](CCCC)(CCCC)CCCC.O=S(=O)([N-]S(=O)(=O)C(F)(F)F)C(F)(F)F, for which the activity coefficient is, setting by setting: (358.15 K) 2.85 ± 0.19; (368.15 K) 2.85 ± 0.19; (378.15 K) 2.85 ± 0.19; (388.15 K) 2.86 ± 0.19; (398.15 K) 2.86 ± 0.19; (408.15 K) 2.86 ± 0.19.

On to `C#CCCCCCC` [1-octyne] + CCCC[P+](CCCC)(CCCC)CCCC.O=S(=O)([N-]S(=O)(=O)C(F)(F)F)C(F)(F)F, for which the activity coefficient was 2.79 ± 0.19 (358.15 K); 2.87 ± 0.2 (368.15 K); 2.93 ± 0.2 (378.15 K); 3 ± 0.2 (388.15 K); 3.07 ± 0.21 (398.15 K); 3.13 ± 0.21 (408.15 K).

Take `C1CCCC1` [cyclopentane] + CCCC[P+](CCCC)(CCCC)CCCC.O=S(=O)([N-]S(=O)(=O)C(F)(F)F)C(F)(F)F: the activity coefficient is 2.33 ± 0.16 (358.15 K); 2.35 ± 0.16 (368.15 K); 2.37 ± 0.16 (378.15 K); 2.38 ± 0.16 (388.15 K); 2.4 ± 0.16 (398.15 K); 2.42 ± 0.16 (408.15 K).

For `c1ccccc1` [benzene] + CCCC[P+](CCCC)(CCCC)CCCC.O=S(=O)([N-]S(=O)(=O)C(F)(F)F)C(F)(F)F, the activity coefficient reads like this: (358.15 K) 0.836 ± 0.054; (368.15 K) 0.869 ± 0.056; (378.15 K) 0.901 ± 0.057; (388.15 K) 0.933 ± 0.059; (398.15 K) 0.963 ± 0.061; (408.15 K) 0.994 ± 0.062.

For the compound `C=COC(C)=O` [vinyl acetate] + CCCC[P+](CCCC)(CCCC)CCCC.O=S(=O)([N-]S(=O)(=O)C(F)(F)F)C(F)(F)F, the activity coefficient by setting is: (358.15 K) 0.983 ± 0.062; (368.15 K) 1.01 ± 0.06; (378.15 K) 1.04 ± 0.07; (388.15 K) 1.07 ± 0.07; (398.15 K) 1.1 ± 0.07; (408.15 K) 1.13 ± 0.07.

Regarding `CCCCO` [butan-1-ol] + CCCC[P+](CCCC)(CCCC)CCCC.O=S(=O)([N-]S(=O)(=O)C(F)(F)F)C(F)(F)F, the activity coefficient by setting is: (358.15 K) 1.67 ± 0.11; (368.15 K) 1.61 ± 0.11; (378.15 K) 1.56 ± 0.1; (388.15 K) 1.51 ± 0.1; (398.15 K) 1.46 ± 0.1; (408.15 K) 1.42 ± 0.09.

Consider `CC(C)OC(C)C` [diisopropyl ether] + CCCC[P+](CCCC)(CCCC)CCCC.O=S(=O)([N-]S(=O)(=O)C(F)(F)F)C(F)(F)F, for which the activity coefficient runs as follows: (358.15 K) 2.88 ± 0.2; (368.15 K) 2.94 ± 0.2; (378.15 K) 3 ± 0.2; (388.15 K) 3.05 ± 0.21; (398.15 K) 3.11 ± 0.21; (408.15 K) 3.17 ± 0.22.

As to `Cc1ccccc1` [toluene] + CCCC[P+](CCCC)(CCCC)CCCC.O=S(=O)([N-]S(=O)(=O)C(F)(F)F)C(F)(F)F, the activity coefficient was 1.11 ± 0.07 (358.15 K); 1.16 ± 0.07 (368.15 K); 1.2 ± 0.08 (378.15 K); 1.24 ± 0.08 (388.15 K); 1.28 ± 0.08 (398.15 K); 1.32 ± 0.09 (408.15 K).

`Cc1ccccc1C` [1,2-dimethylbenzene] + CCCC[P+](CCCC)(CCCC)CCCC.O=S(=O)([N-]S(=O)(=O)C(F)(F)F)C(F)(F)F: the activity coefficient stood at 1.39 ± 0.09 (358.15 K); 1.43 ± 0.09 (368.15 K); 1.48 ± 0.1 (378.15 K); 1.52 ± 0.1 (388.15 K); 1.57 ± 0.1 (398.15 K); 1.61 ± 0.11 (408.15 K).
